Data from US20220273643A1, “METHOD OF TREATING KRAS-ASSOCIATED CANCERS” (THE REGENTS OF THE UNIVERSITY OF MICHIGAN, priority 2019, published 2022).

Tests used:
[1] = liver microsomal stability; type: in vitro ADME; conditions: compared to two other structurally close compounds
solubility in water = type: physicochemical; conditions: pH 3.5
Panc1 = assay: immunoblotting Panc1; type: cell-based; conditions: Panc1, KRAS G12D specific antibody; preliminary data
Description: (§1) FIG. 3 depicts the effect of DGD1202 on EGFR, KRAS and downstream signaling. (A). HCT-116 (colorectal cancer) cells were treated with DGD1202 for 5 h or 15 h, and whole cell lysates were probed with listed antibodies. (B). Evaluation of DGD1202 effects against the KRAS G12D driven pancreatic cell line (Panc1) tumor model; effect of treatment on the steady-state level of EGFR and mtKRAS was determined by immunoblotting; and GAPDH expression was assessed as a loading control.
(§2) The effect of DGD1202 on EGFR, ERK and AKT was also evaluated by immunoblotting. The preliminary data for DGD1202 in mutant KRAS driven HCT-116 (CRC) and Panc1 (Pancreas) cell lines are shown in FIG. 3A and FIG. 3B, respectively.
(§3) Cells were plated in 60-mm dishes at a density of 3×10^5 cells per dishes and incubated overnight or to 70% confluence. The cells were treated with the vehicle (DMSO) or DGD1202 and then were harvested at various time points. The pellets were washed twice with ice-cold PBS and re-suspended in lysis buffer for 30 min. After sonication, particulate material was removed by centrifugation at 13,000 rpm for 10 min at 4° C. […] After three additional washes in Tris-buffered saline, bound antibody was detected by enhanced chemiluminescence plus reagent. For quantification of relative protein levels, immunoblot films were scanned and analyzed using Image J 1.32j software. […]

EGFR [2] = molecular target: T1, EGFR (Homo sapiens, UniProt P00533); assay: EGFR degradation; type: cell-based; conditions: instead of inhibiting the activity
T1 construct: endogenous in cells; host or cells: HCT-116, Panc1 (inferred; the sentence holding the result names no cells)

UMSCC74B = type: in vivo
Description: FIG. 1 depicts the effect of DGD1202 in mutant KRAS (and EGFR co-driven) head and neck (UMSCC74B) tumor model.
Tumor-bearing mice were treated with DGD1202 via oral gavage in 30 mg/kg dose biweekly for one week. This dose was selected based on its single-dose PK profile.

[3] = tested on: cetuximab-resistant cell-lines; assay: IC50 against cetuximab-resistant cell-lines; type: cell-based; conditions: cetuximab-resistant cell-lines expressing mutant KRAS
HCT-116 [4] = assay: immunoblotting HCT-116; type: cell-based; conditions: preliminary data
Description: as §1, §2, §3

EGFR [5] = molecular target: T1, EGFR; assay: EGF-induced EGFR dimerization; type: cell-based
[6] = tested on: immortalized cells of non-cancer origin; assay: IC50 in immortalized cells of non-cancer origin; type: cell-based
purified EGFR = purified EGFR (Homo sapiens, UniProt P00533); assay: direct binding to purified EGFR
[7] = tested on: PanIn (pancreatic intraepithelial neoplasia); assay: KRAS G12D driven pancreatic tumor model (KC mice); type: in vivo; conditions: 30 mg/kg oral gavage daily for 5 weeks, scored at week 11
Description: A study was conducted to evaluate the efficacy of DGD1202 in KRAS G12D driven pancreatic tumor model.
More specifically, 6-week old KC mice were treated with DGD1202 via oral gavage (30 mg/kg body weight, daily) for 5 weeks.

lung lesion = assay: genetically engineered KRAS-LSL-G12D mouse model of lung cancer; type: in vivo, mice; conditions: 30 mg/kg oral gavage Monday-Friday for 4 weeks; paired t-test p=0.0577
Description: The efficacy of DGD1202 treatment was assessed for KRAS-mutant lung tumor initiation and progression. A genetically engineered KRAS-LSL-G12D mouse model of lung cancer was used. This mouse carries a Lox-Stop-Lox (LSL) sequence followed by the KRAS G12D point mutation allele. Tumorigenesis was initiated by intra-nasal delivery of Adenovirus-Cre particles (1.5×10e^7 pfu) that transduced lung epithelial cells to express Cre recombinase that deletes the LSL cassette and allows the expression of the mutant KRAS oncogenic protein.
Eight weeks after viral delivery, the mice were treated either with vehicle or with DGD1202 on a Monday-Friday schedule for 4 weeks at a dose of 30 mg/kg oral gavage. When mice were 20-week old, the lungs were harvested and the H&E sections underwent morphological assessment. The histopathological spectrum of the lung lesions was noted and recorded in a double-blinded fashion for hyperplasia—alveolar or bronchial, the pattern of hyperplasia, adenoma, hyperplasia with focal atypia, bronchial dysplasia, adenomas, and atypical adenomatous hyperplasia. The percentage of lung lesion and total area of lung lesion from each lobe in every sample from both treatment group were scored and are shown in FIG. 6.

[8] = tested on: EGFR-driven osimertinib resistant cell lines; assay: activity in osimertinib resistant cell lines; type: cell-based
bioavailability = type: in vivo; conditions: systemic injection and oral administration
HCT-116 [9] = assay: clonogenic survival assay HCT-116; type: cell-based; conditions: KRAS G13D driven cetuximab-resistant colorectal cell-line; FIG. 2
Description: A study was conducted to evaluate the activity of DGD1202 in a KRAS G13D driven cetuximab-resistant colorectal cell-line (HCT-116) using clonogenic survival assays (FIG. 2) and in a pancreatic cancer cell line (Panc1) that contains KRAS G12D mutation (FIG. 3B).
More specifically, cells were plated at clonal density in 60 or 100 mm culture dishes in triplicate one day before treatment with a range of concentrations (e.g., 0-10 micro M). Eight to twelve days later, cells were fixed with acetic acid/methanol (1:7, v/v), stained with crystal violet (0.5%, w/v), and counted using a stereomicroscope. Drug cytotoxicity (surviving drug-treated cells) was measured and normalized to the survival of the untreated control cells.

NCI-H1975-AZR = NCI-H1975-AZR (osimertinib resistant) xenograft; type: in vivo; conditions: SCID mice, 75 mg/kg oral gavage daily for two weeks
Description: FIG. 5 depicts the effect of DGD1202 on osimertinib resistant, NCI-H1975 lung cancer xenografts. (A). SCID mice bearing NCI-H1975 osimertinib resistant xenografts were treated with DGD1202 (75 mg/kg, daily, PO). The arrow marks the initiation of treatment with DGD1202. Change in tumor volume is plotted. (B). The effect of DGD1202 treatment on EGFR was assessed in tumors harvested 3 days post DGD1202 treatment.
A study was conducted to evaluate the efficacy of DGD1202 in mutant EGFR driven lung cancer model (FIG. 5).
Briefly, SCID mice bearing locally advanced NCI-H1975-AZR (osimertinib resistant) xenograft were treated daily with oral gavage of DGD1202 (75 mg/kg) for two weeks. Tumor volumes were measured using calipers at least three times a week. The effect of DGD1202 treatment on EGFR expression was determined by IHC staining 3-days after initiation of treatment.

T1 sequence (P00533 25-1210): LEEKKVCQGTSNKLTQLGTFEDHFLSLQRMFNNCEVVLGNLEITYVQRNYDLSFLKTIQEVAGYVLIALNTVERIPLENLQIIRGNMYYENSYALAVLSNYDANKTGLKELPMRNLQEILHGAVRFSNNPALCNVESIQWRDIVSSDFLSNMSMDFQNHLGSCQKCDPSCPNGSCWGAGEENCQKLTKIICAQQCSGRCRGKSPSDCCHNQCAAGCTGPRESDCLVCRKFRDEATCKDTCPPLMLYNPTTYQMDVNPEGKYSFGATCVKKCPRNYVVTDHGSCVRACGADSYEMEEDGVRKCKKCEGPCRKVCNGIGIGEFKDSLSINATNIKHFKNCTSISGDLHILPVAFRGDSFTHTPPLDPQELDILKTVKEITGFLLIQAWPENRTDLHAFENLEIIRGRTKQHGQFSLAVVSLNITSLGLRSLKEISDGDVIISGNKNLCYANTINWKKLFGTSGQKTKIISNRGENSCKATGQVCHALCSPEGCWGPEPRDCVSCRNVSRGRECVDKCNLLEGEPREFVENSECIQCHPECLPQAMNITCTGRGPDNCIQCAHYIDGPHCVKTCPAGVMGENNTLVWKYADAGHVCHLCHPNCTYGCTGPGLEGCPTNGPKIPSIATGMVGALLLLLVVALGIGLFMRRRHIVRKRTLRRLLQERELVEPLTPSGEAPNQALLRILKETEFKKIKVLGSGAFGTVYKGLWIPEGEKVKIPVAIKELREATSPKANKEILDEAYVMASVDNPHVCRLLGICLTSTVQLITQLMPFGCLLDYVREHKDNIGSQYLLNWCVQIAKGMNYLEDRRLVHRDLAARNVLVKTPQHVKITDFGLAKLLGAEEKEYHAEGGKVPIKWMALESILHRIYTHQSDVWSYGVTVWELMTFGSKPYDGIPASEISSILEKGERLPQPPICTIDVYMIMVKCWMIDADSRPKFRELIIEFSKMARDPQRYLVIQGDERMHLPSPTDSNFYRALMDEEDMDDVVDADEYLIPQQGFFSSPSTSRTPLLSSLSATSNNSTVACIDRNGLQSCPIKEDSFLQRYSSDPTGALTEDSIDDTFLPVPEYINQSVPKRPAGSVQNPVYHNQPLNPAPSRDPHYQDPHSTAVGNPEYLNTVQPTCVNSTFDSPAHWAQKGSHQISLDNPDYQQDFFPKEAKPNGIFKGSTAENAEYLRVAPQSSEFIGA
purified EGFR, sequence (P00533 25-1210): as above

Structure (SMILES): CN1CCC2(CC1)N=C(SCC(=O)Nc1cnc3ccccc3c1)C(c1ccc(Br)cc1)=N2 [DGD1202, 2-((3-(4-bromophenyl)-8-methyl-1,4,8-triazaspiro[4.5]deca-1,3-dien-2-yl)thio)-N-(quinolin-3-yl)acetamide]
- liver microsomal stability [1]: much better liver microsomal stability
- solubility in water (solubility in water): soluble in water at pH 3.5
- EGFR and mtKRAS levels by immunoblotting (Panc1): affected both EGFR and mtKRAS (Panc1) levels
- EGFR degradation (EGFR [2]): degrades EGFR
- safety of dose and regimen (UMSCC74B; 30 mg/kg oral gavage, tumor-bearing mice): safe
- tumor growth (UMSCC74B; UMSCC74B tumor-bearing mice, DGD1202 30 mg/kg oral gavage, cetuximab 100 mg/kg (FIG. 1), P<0.001 for DGD1202): significant tumor growth suppression
- IC50 [3]: 500 to 2200 nM
- EGFR and KRAS levels by immunoblotting (HCT-116 [4]; HCT116, PAN-RAS antibody, 5 h or 15 h): affected both EGFR and mtKRAS
- downstream signaling pAKT and pERK by immunoblotting (HCT-116 [4]; HCT-116): affected downstream signaling in pAKT and pERK
- EGF-induced EGFR dimerization (EGFR [5]): blocks EGF-induced EGFR dimerization
- IC50 [6]: > 20000 nM
- binding to purified EGFR (purified EGFR): directly binds to purified EGFR
- effect on PanIn (pancreatic intraepithelial neoplasia) [7]: significantly reduced propensity for developing PanIn
- percentage of lung lesion and total area of lung lesion vs vehicle (lung lesion): tend towards significance
- activity in EGFR-driven osimertinib resistant cell lines [8]: selectively active
- bioavailability (bioavailability): bioavailable
- clonogenic survival (HCT-116 [9]): effective
- efficacy on tumor volume (NCI-H1975-AZR): exhibited efficacy
